Experimental data as given in patent US8513303B2, “Antimicrobial agent” (De Montfort University, priority 2007, dated 2013).

Assays:
Assay type in all cases: cell-based
[1] = tested on: Escherichia coli ATCC 10536; assay: Antimicrobial activity of PAN catalyst during reuse; details: 0.2% w/v H2O2, no air
Description: (§1) PAN catalyst was assessed for antimicrobial activity at first use, 48 hours after first use, 48 hours after second use and six months after first use using the same experimental conditions as described previously (see testing antimicrobial activity section).

[2] = tested on: Staphylococcus aureus ATCC 6538; assay: as above; details: room temperature, 1% w/v H2O2, no air
Description: as §1

[3] = tested on: Escherichia coli ATCC 10536; assay: Quantitative suspension test, log10 reduction in bacterial numbers; details: 0.2% w/v H2O2
Text: Neutralisation (nullification of activity) of antimicrobial agents is required to prevent inhibitory concentrations from being transferred to the recovery medium (as discussed, for example, in Russell A. D. (2004) Factors influencing the efficacy of antimicrobial agents in Principles and Practice of Disinfection Preservation and Sterilization, 4th edition, eds Fraise A. P., Lambert P. A. and Maillard J. Y., pages 98-127, Oxford: Blackwell Publishing Ltd. and Russell A. D., Ahonkhai I. and Rogers, D. T. (1979) A review: microbiological applications of the inactivation of antibiotics and other antimicrobial agents. Journal of Applied Bacteriology, 46, 207-245). Thus, samples were removed at desired time points and then any hydrogen peroxide present in the sample was neutralised (i.e. deactivated) using catalase.
In the examples, catalase from bovine liver was used to neutralise the activity of any remaining hydrogen peroxide (as described in Russell A. D., Ahonkhai I. and Rogers, D. T. (1979), A review: microbiological applications of the inactivation of antibiotics and other antimicrobial agents, Journal of Applied Bacteriology, 46, 207-245) after the appropriate contact time during the experiments. Control experiments were conducted to establish whether the neutraliser nullified the activity of hydrogen peroxide and whether the neutraliser was toxic to the micro-organisms tested.
The effect of acidic pH conditions (pH 3.47 to 3.54) were investigated with and without hydrogen peroxide and air.
A quantitative suspension test (as described in Reybrouck G. (1998), The testing of disinfectants, International Biodeterioration and Biodegradation, 41, 269-272) based on the general principles of European quantitative suspension tests (BS EN1040:2005: Chemical disinfectants and antiseptics, Quantitative suspension test for the evaluation of basic bactericidal activity of chemical disinfectants and antiseptics, Test method and requirements (phase 1), London: British Standards Institute; BS EN 1276:1997: Chemical disinfectants and antiseptics, Quantitative suspension test for the evaluation of bactericidal activity of chemical disinfectants and antiseptics used in food, industrial, domestic, and institutional areas, Test method and requirements (phase 2, step 1). London: British Standards Institute) was used to establish the basic level of activity of the catalyst in the absence of organic matter. All tests were performed independently at least three times unless otherwise stated. Low concentrations (0.2-1% w/v) of hydrogen peroxide were used so that increases in antimicrobial activity could be detected if present.
Bacteria were inoculated into 10 ml volumes of nutrient broth and incubated at 37° C. for 18 to 24 hours at a shaking speed of 100 revolutions/minute. After incubation, the bacteria were washed by centrifugation to remove the nutrient broth; supernatants were discarded and the bacterial pellets were resuspended in sterilised distilled water. 7.5 ml of the washed bacterial suspension was added to 67.5 ml of hydrogen peroxide and/or distilled water to give a specific final concentration (ranging from 0 to 1% w/v—see Tables below) of hydrogen peroxide and approximately 8 log10 colony forming units (CFU)/mL of bacteria. The resultant mixture was stirred magnetically throughout the experiment. Where applicable, 1 g (+/−0.1 g) of either modified PAN fibre (referred to as PAN1 (control) or PAN2 (control)) or catalyst (referred to as PAN1 catalyst or PAN2 catalyst or PAN3 catalyst) comprising PAN fibres was added to the resultant mixture. The experiments were performed with or without air. If air was used, 2.5 L/min was supplied via. a filtered air pump and a sterilised Pyrex gas distribution tube.
After a specific contact time (see Tables below), 1 ml aliquots were removed from the experimental flask and transferred into 9 ml of neutraliser (catalase) for 5 minutes to inactivate any remaining hydrogen peroxide.

[4] = tested on: Pseudomonas aeruginosa ATCC 15442; assay: Antimicrobial activity of PAN catalyst under buffered neutral pH conditions at room temperature and 35° C.; details: 0.5% w/v H2O2; for log reduction: 35° C., held at neutral pH; for Mean log10 reduction in CFU/ml: room temperature, buffered at neutral pH
Description: Experiments were conducted using the method outlined previously (see testing antimicrobial activity section), but hydrogen peroxide and catalyst were prepared in phosphate buffer solution. Experiments were carried out at room temperature and 35° C.

OO [Example H2O2, hydrogen peroxide]
Mean log10 reduction in CFU/ml ([1]; 35° C., 10 min): 2.46 log10 CFU/ml | Mean log10 reduction in CFU/ml ([1]; 35° C., 20 min): 3.77 log10 CFU/ml | Mean log10 reduction in CFU/ml ([1]; 35° C., 30 min): ≧5.30 log10 CFU/ml | Mean log10 reduction in CFU/ml ([1]; 35° C., 30 min, listed as hydrogen peroxide): greater than or equal to 5.30 log10 CFU/ml | Mean log10 reduction in CFU/ml ([1]; 35° C., 40 min): >5.50 log10 CFU/ml | Mean log10 reduction in CFU/ml ([1]; 35° C., 50 min): >5.50 log10 CFU/ml | Mean log10 reduction in CFU/ml ([1]; 35° C., 60 min): >5.50 log10 CFU/ml | Mean log10 reduction in CFU/ml ([1]; room temperature, 10 min): 1.01 log10 CFU/ml | Mean log10 reduction in CFU/ml ([1]; room temperature, 20 min): 2.08 log10 CFU/ml | Mean log10 reduction in CFU/ml ([1]; room temperature, 30 min): 3.28 log10 CFU/ml | Mean log10 reduction in CFU/ml ([1]; room temperature, 40 min): 4.00 log10 CFU/ml | Mean log10 reduction in CFU/ml ([1]; room temperature, 50 min): 5.17 log10 CFU/ml | Mean log10 reduction in CFU/ml ([1]; room temperature, 60 min): >5.50 log10 CFU/ml | Mean log10 reduction in CFU/ml ([2]; 10 min): 0.54 log10 CFU/ml | Mean log10 reduction in CFU/ml ([2]; 20 min): 1.18 log10 CFU/ml | Mean log10 reduction in CFU/ml ([2]; 30 min): 2.68 log10 CFU/ml | Mean log10 reduction in CFU/ml ([2]; 40 min): 3.56 log10 CFU/ml | Mean log10 reduction in CFU/ml ([2]; 50 min): 4.62 log10 CFU/ml | Mean log10 reduction in CFU/ml ([2]; 60 min): 5.08 log10 CFU/ml | Mean log10 reduction in CFU/ml ([3]; air 2.5 L/min, 10 min): 1.33 (0.27) log10 CFU/ml | Mean log10 reduction in CFU/ml ([3]; air 2.5 L/min, 20 min): 2.68 (0.22) log10 CFU/ml | Mean log10 reduction in CFU/ml ([3]; air 2.5 L/min, 30 min): 3.98 (0.28) log10 CFU/ml | Mean log10 reduction in CFU/ml ([3]; air 2.5 L/min, 40 min): 4.79 (0.43) log10 CFU/ml | Mean log10 reduction in CFU/ml ([3]; air 2.5 L/min, 50 min): >5.58 (0) log10 CFU/ml | Mean log10 reduction in CFU/ml ([3]; air 2.5 L/min, 50 min, listed as hydrogen peroxide): greater than 5 log10 CFU/ml | Mean log10 reduction in CFU/ml ([3]; air 2.5 L/min, 60 min): >5.58 (0) log10 CFU/ml | Mean log10 reduction in CFU/ml ([3]; no air, 10 min): 1.01 (0.36) log10 CFU/ml | Mean log10 reduction in CFU/ml ([3]; no air, 20 min): 2.20 (0.42) log10 CFU/ml | Mean log10 reduction in CFU/ml ([3]; no air, 30 min): 2.67 (0.52) log10 CFU/ml | Mean log10 reduction in CFU/ml ([3]; no air, 40 min): 3.52 (0.57) log10 CFU/ml | Mean log10 reduction in CFU/ml ([3]; no air, 50 min): 4.21 (0.19) log10 CFU/ml | Mean log10 reduction in CFU/ml ([3]; no air, 60 min): 4.76 (0.39) log10 CFU/ml | Mean log10 reduction in CFU/ml ([3]; no air, 60 min, listed as hydrogen peroxide): 4.76 log10 CFU/ml | Mean log10 reduction in CFU/ml ([3]; acidic pH 3.47 to 3.54, air 2.5 L/min, 10 min): 2.16 log10 CFU/ml | Mean log10 reduction in CFU/ml ([3]; acidic pH 3.47 to 3.54, air 2.5 L/min, 20 min): 3.35 log10 CFU/ml | Mean log10 reduction in CFU/ml ([3]; acidic pH 3.47 to 3.54, air 2.5 L/min, 30 min): 4.46 log10 CFU/ml | Mean log10 reduction in CFU/ml ([3]; acidic pH 3.47 to 3.54, air 2.5 L/min, 40 min): ≧5.46 log10 CFU/ml | Mean log10 reduction in CFU/ml ([3]; acidic pH 3.47 to 3.54, air 2.5 L/min, 40 min, listed as hydrogen peroxide): greater than 5 log10 CFU/ml | Mean log10 reduction in CFU/ml ([3]; acidic pH 3.47 to 3.54, air 2.5 L/min, 50 min): >5.46 log10 CFU/ml | Mean log10 reduction in CFU/ml ([3]; acidic pH 3.47 to 3.54, air 2.5 L/min, 60 min): >5.46 log10 CFU/ml | Mean log10 reduction in CFU/ml ([3]; acidic pH 3.47 to 3.54, no air, 10 min): 2.43 log10 CFU/ml | Mean log10 reduction in CFU/ml ([3]; acidic pH 3.47 to 3.54, no air, 20 min): 3.40 log10 CFU/ml | Mean log10 reduction in CFU/ml ([3]; acidic pH 3.47 to 3.54, no air, 30 min): 4.21 log10 CFU/ml | Mean log10 reduction in CFU/ml ([3]; acidic pH 3.47 to 3.54, no air, 40 min): ≧5.11 log10 CFU/ml | Mean log10 reduction in CFU/ml ([3]; acidic pH 3.47 to 3.54, no air, 40 min, listed as hydrogen peroxide): greater than 5 log10 CFU/ml | Mean log10 reduction in CFU/ml ([3]; acidic pH 3.47 to 3.54, no air, 50 min): ≧5.30 log10 CFU/ml | Mean log10 reduction in CFU/ml ([3]; acidic pH 3.47 to 3.54, no air, 60 min): >5.46 log10 CFU/ml | log reduction ([4]; air, 20 min): 3.13 log | log reduction ([4]; air, 40 min): 3.41 log | log reduction ([4]; no air, 50 min): 3.90 log | Mean log10 reduction in CFU/ml ([4]; air 2.5 L/min, 10 min): 1.37 log10 CFU/ml | Mean log10 reduction in CFU/ml ([4]; air 2.5 L/min, 20 min): 1.46 log10 CFU/ml | Mean log10 reduction in CFU/ml ([4]; air 2.5 L/min, 30 min): 1.71 log10 CFU/ml | Mean log10 reduction in CFU/ml ([4]; air 2.5 L/min, 40 min): 1.61 log10 CFU/ml | Mean log10 reduction in CFU/ml ([4]; air 2.5 L/min, 50 min): 1.75 log10 CFU/ml | Mean log10 reduction in CFU/ml ([4]; air 2.5 L/min, 60 min): 1.90 log10 CFU/ml | Mean log10 reduction in CFU/ml ([4]; no air, 10 min): 1.08 log10 CFU/ml | Mean log10 reduction in CFU/ml ([4]; no air, 20 min): 1.49 log10 CFU/ml | Mean log10 reduction in CFU/ml ([4]; no air, 30 min): 1.69 log10 CFU/ml | Mean log10 reduction in CFU/ml ([4]; no air, 40 min): 1.79 log10 CFU/ml | Mean log10 reduction in CFU/ml ([4]; no air, 50 min): 1.92 log10 CFU/ml | Mean log10 reduction in CFU/ml ([4]; no air, 60 min): 1.85 log10 CFU/ml
